Experimental data from article PMC9863004, “Development of [^124/125I]IAZA as a New Proteinopathy Imaging Agent for Alzheimer’s Disease” (Molecules, 2023).

Experiments:
[1] = biological target: T1, Aβ amyloid plaques (amyloid β) (Homo sapiens, UniProt P05067); assay: autoradiographic radioligand competition with […]IBETA in human AD brain slices; direct [[…]I]IAZA binding
T1 construct: gene APP; aggregated Aβ plaques in postmortem human AD brain slices

[2] = biological target: T1, Aβ amyloid plaques (amyloid β); assay: displacement of […]IAZA at […], autoradiography in human AD brain slices

T1 sequence (P05067 18-770): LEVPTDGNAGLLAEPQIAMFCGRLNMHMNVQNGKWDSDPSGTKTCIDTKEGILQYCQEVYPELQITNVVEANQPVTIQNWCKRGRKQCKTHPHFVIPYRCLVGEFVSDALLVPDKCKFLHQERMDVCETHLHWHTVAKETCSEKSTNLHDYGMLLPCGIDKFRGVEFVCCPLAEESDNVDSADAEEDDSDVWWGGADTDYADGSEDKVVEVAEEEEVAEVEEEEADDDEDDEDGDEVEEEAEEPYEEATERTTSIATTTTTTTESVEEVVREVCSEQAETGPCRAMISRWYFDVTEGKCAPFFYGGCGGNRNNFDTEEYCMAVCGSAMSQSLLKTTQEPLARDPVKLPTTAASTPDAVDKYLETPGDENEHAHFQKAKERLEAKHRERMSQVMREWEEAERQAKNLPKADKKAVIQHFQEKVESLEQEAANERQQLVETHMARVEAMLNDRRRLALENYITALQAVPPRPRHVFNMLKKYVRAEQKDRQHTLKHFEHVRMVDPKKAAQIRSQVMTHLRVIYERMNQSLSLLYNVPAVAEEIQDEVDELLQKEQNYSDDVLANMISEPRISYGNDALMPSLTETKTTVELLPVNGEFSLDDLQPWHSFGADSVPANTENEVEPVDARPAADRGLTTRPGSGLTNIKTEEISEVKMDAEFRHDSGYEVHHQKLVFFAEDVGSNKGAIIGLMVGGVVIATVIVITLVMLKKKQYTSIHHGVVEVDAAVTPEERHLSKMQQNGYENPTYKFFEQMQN

Which Ki [1] does the source give for `CN(C)c1ccc(N=Nc2ccc(I)cc2)cc1` [compound 5, 4′-iodo-4-dimethylaminoazobenzene] here?
Its Ki is 10.9 nM.

How did the inhibition at 10 µM [2] turn out when `CN(C)c1ccc(-c2cc3cc(Br)ccc3o2)cn1` [BrBETA] was run?
Its inhibition at 10 µM is greater than 95%.
